Results reported in patent EP4663206A1, “NEXT-GENERATION ADC LINKER PLATFORM TECHNOLOGY AND POLYSACCHARIDE CROSS-LINKED COLLOIDAL PARTICLE-DRUG CONJUGATE” (Inventera Inc., priority 2023, dated 2024).

Experiments:
cancer cells = conditions: cited from earlier work
[1] = Phantom study, 3T MRI scanner (relaxivity)
Description: The measured r1 and r2 relaxivity values of NEMO-103 were 2.0 mM^-1s^-1 and 2.3 mM^-1s^-1, respectively (FIGS. 24d and 24e). The r2/r1 ratio, which is an important parameter for T1 MRI contrast agents, was calculated to be 1.15. […] For comparison, the measured r1 and r2 values of Dotarem® were 4.7 mM^-1s^-1 and 5.2 mM^-1s^-1, respectively, resulting in an r2/r1 ratio of 1.11.

[2] = Shoulder MR arthrography image quality assessment, clinical comparative study NEMO-103 vs GBCA; type: in vivo, humans; conditions: supine position, over time
Description: FIGS. 25 and 26 illustrate the phase design and image quality assessment method of a clinical comparative study between NEMO-103, a dextran-crosslinked T1 MRI contrast agent, and Dotarem®, a representative clinical gadolinium-based contrast agent (GBCA) for T1 MRI. Phase I refers to MR arthrography (MRA) images acquired within 30 minutes after contrast agent administration. Phase II refers to MRA images acquired between 30 and 60 minutes post-administration, and Phase III refers to MRA images acquired between 110 and 130 minutes post-administration. In Comparison 1, no quantitative or qualitative differences were observed between NEMO-103-based MRA images acquired during Phase I and Phase II (FIG. 27). […] In Comparison 3, which compared NEMO-103-based MRA images from Phase II with GBCA-based MRA images, more prominent differences were observed (FIG. 29).
Amid growing safety concerns surrounding gadolinium-based contrast agents (GBCAs), iron (Fe)-based alternatives have emerged as a subject of active investigation. The present example evaluates the efficacy of NEMO-103 in comparison with a GBCA by assessing contrast-to-noise ratio (CNR) and MR arthrography (MRA) image quality. […] Both contrast agents effectively delineated key anatomical structures, including tissue contrast, sharpness, rotator cuff tendons, labral structures, and adjacent cartilage. […]

[3] = stated in discussion, according to current reports; cited from earlier work
[4] = test system: BT-474 human breast cancer xenograft model; test: In vivo antitumor efficacy in cancer xenograft mouse model (intratumoral injection, tumor volume); design: species or system Balb/c nude mice; conditions: alone; Doxorubicin 2 mg/kg; TLRA1 agonist 6 nmol/mL (0.3 nmol)
Description: The antitumor efficacy of the drug was assessed by monitoring changes in tumor volume following administration. Cdex@TLRA1 and Cdex@TLRB1 were administered in a cancer xenograft mouse model to evaluate antitumor immune responses and subsequent tumor cell death.
Balb/c nude mice (6 weeks old) were used to establish a BT-474 human breast cancer xenograft model for in vivo efficacy evaluation. Approximately 1 × 10^6 BT-474 breast cancer cells were mixed with Matrigel at a 1:1 volume ratio and subcutaneously implanted into the dorsal flank of each mouse in a volume of approximately 100 µL.
Once tumor volumes reached approximately 50 mm^3, Cdex@TLRA1 and Cdex@TLRB1 were directly injected into the tumor masses, and tumor growth was monitored over a 2-week period to evaluate drug efficacy. The test substances were administered on days 0, 4, 7, 12, and 15 (see FIG. 18a). To enhance antitumor effects, doxorubicin was administered to all groups except the negative control group on days 1 and 9. A separate "doxorubicin only" group was included for comparative purposes (see FIG. 18b and Table 6).

For `CC[C@@]1(O)C(=O)OCc2c1cc1n(c2=O)Cc2c-1nc1cc(F)c(C)c3c1c2[C@@H](N)CC3` [DXd, exatecan], the “activity in cancer cells compared to SN-38” value (cancer cells) is given as “approximately 10 fold”.
For `CNC[C@H](O)[C@@H](O)[C@H](O)[C@H](O)CO.O=C([O-])CN1CCN(CC(=O)[O-])CCN(CC(=O)O)CCN(CC(=O)[O-])CC1.[Gd+3]` [Dotarem], the r1 relaxivity [1] is listed as 4.7 mM⁻¹ s⁻¹, the “incidence of axillary pouch obliteration compared to NEMO-103” value [2] is listed as “relatively higher incidence” and the hydrodynamic size [3] is listed as less than 1 nm.
For `COc1cccc2c1C(=O)c1c(O)c3c(c(O)c1C2=O)C[C@@](O)(C(=O)CO)C[C@@H]3O[C@H]1C[C@H](N)[C@H](O)[C@H](C)O1` [Doxorubicin], the tumor growth rate [4] was “reduction in tumor growth rate” and the tumor size [4] was “no significant decrease in tumor size”.
